Measured values from article PMC9861757, “New Insights into Conformationally Restricted Carbonic Anhydrase Inhibitors” (Molecules, 2023).
Like-named read-outs stand apart in the source and are kept apart here.

Tests used:
human CA I [1] = biological target: T1, human CA I (Homo sapiens, UniProt P00915); test: stopped-flow CO2 hydrase assay, CA I inhibition; conditions: for inhibition of CA I (in words): qualitative statement; for loss of CA I inhibition potency relative to 3a: comparator 3a
Procedure: (§1) An Applied Photophysics stopped-flow instrument was used to assay the CA catalyzed CO2 hydration activity [14]. […] The uncatalyzed rates were determined in the same manner and subtracted from the total observed rates. Stock solutions of the inhibitor (0.1 mM) were prepared in distilled–deionized water and dilutions up to 0.01 nM were done thereafter with the assay buffer. Inhibitor and enzyme solutions were preincubated together for 15 min at room temperature prior to the assay to allow for the formation of the E–I complex. The inhibition constants were obtained by non-linear least-squares methods using PRISM 3 and the Cheng–Prusoff equation, as reported earlier, and represent the mean from at least three different determinations. All CA isoforms were recombinant proteins obtained in house, as reported earlier [1, 12, 13].

human CA II [2] = biological target: T2, human CA II (Homo sapiens, UniProt P00918); test: stopped-flow CO2 hydrase assay, CA II inhibition
Procedure: as §1

human CA IX [3] = biological target: T3, human CA IX (Homo sapiens, UniProt Q16790); test: stopped-flow CO2 hydrase assay, CA IX inhibition; conditions: for SI (IX/II): ratio KI CA IX / KI CA II
Procedure: as §1

human CA XII [4] = biological target: T4, human CA XII (Homo sapiens, UniProt O43570); test: stopped-flow CO2 hydrase assay, CA XII inhibition
T4 sequence (O43570 25-354): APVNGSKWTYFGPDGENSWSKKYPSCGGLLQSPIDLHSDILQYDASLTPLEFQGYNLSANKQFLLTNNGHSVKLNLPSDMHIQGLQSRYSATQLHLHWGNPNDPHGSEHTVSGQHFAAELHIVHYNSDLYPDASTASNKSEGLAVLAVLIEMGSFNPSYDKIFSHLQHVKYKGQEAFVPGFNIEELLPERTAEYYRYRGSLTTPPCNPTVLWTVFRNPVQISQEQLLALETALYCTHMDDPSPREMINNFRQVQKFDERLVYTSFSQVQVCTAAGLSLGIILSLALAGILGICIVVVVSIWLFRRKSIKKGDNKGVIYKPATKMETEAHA
Procedure: as §1

human CA I [5] = biological target: T1, human CA I; set-up: made in house; method as in PMID 31076951; conditions: stopped-flow CO2 hydrase assay; compound marked with a reference in Table 1; cited from earlier work
human CA II [6] = biological target: T2, human CA II; set-up: made in house; method as in PMID 31076951; conditions: stopped-flow CO2 hydrase assay; compound marked with a reference in Table 1; cited from earlier work
human CA IX [7] = biological target: T3, human CA IX; set-up: made in house; method as in PMID 31076951; conditions: stopped-flow CO2 hydrase assay; compound marked with a reference in Table 1; cited from earlier work
human CA XII [8] = biological target: T4, human CA XII; set-up: made in house; method as in PMID 31076951; conditions: stopped-flow CO2 hydrase assay; compound marked with a reference in Table 1; cited from earlier work

T1 sequence (P00915 whole entry): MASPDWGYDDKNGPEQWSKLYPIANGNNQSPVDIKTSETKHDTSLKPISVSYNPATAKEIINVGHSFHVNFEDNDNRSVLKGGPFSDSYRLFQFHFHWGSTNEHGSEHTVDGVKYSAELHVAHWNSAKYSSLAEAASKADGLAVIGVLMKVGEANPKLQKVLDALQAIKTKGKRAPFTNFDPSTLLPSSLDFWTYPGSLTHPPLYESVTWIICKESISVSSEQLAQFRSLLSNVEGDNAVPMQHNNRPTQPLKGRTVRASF

| Ki (human CA II [2]) | Ki (human CA IX [3]) | SI (IX/II) (human CA IX [3]) | Ki (human CA XII [4]) | Ki (human CA I [1]) | Compound | other results |
| --- | --- | --- | --- | --- | --- | --- |
| 75.9 nM | 34.7 nM | 0.77 | 239 nM |  | NS(=O)(=O)c1ccc(CCNC(=O)Nc2ccccc2O)cc1 [Compound 3k, 4-(2-(3-(2-Hydroxyphenyl)ureido)ethyl)benzenesulfonamide] | inhibition of CA I (in words) (human CA I [1]; CA I): did not result in appreciable inhibition; less effective on CA II than AAZ (human CA II [2]; CA II, comparator AAZ): 6.3 fold |
| 288 nM | 4120 nM | 14.3 | 659 nM | 689 nM | NS(=O)(=O)c1ccc(O)c(NC(=O)NCCN2CCCCC2)c1 [Compound 3d, 4-Hydroxy-3-(3-(2-(piperidin-1-yl)ethyl)ureido)benzenesulfonamide] |  |
|  |  | 0.0006 |  |  | NS(=O)(=O)c1ccc(O)c(NC(=O)NCc2ccncc2)c1 [Compound 3g, 4-Hydroxy-3-(3-(pyridin-4-ylmethyl)ureido)benzenesulfonamide] | Ki (human CA I [5]): 89.5 nM; more potent on CA I compared to AAZ (human CA I [1]; CA I, comparator AAZ): up to 2.8 fold; Ki (human CA II [6]): 463 nM; Ki (human CA IX [7]): 0.3 nM; Ki (human CA XII [8]): 85.1 nM |
| 914 nM | 308 nM | 0.34 | 507 nM | 8650 nM | NS(=O)(=O)c1ccc(O)c(NC(=O)N2CCCCC2)c1 [Compound 3b, N-(2-Hydroxy-5-sulfamoylphenyl)piperidine-1-carboxamide] | loss of CA I inhibition potency relative to 3a (human CA I [1]; CA I): 14.8 fold; more effective on CA II than 3a (human CA II [2]; CA II, comparator 3a): 3.5 fold; more effective on CA IX than 3a (human CA IX [3]; CA IX, comparator 3a): 1.2 fold |
| 3000 nM | 2140 nM | 0.71 | 629 nM | 9210 nM | NS(=O)(=O)c1ccc(O)c(NC(=O)NCCN2CCOCC2)c1 [Compound 3e, 4-Hydroxy-3-(3-(2-morpholinoethyl)ureido)benzenesulfonamide] | decrease of CA I affinity relative to 3d (human CA I [1]; CA I, comparator 3d): 13.4 fold; more potent CA IX inhibition compared to 3d (human CA IX [3]; CA IX, comparator 3d): 1.9 fold |
| 7740 nM | 2150 nM | 0.28 | 505 nM | 8990 nM | CCN1CCN(C(=O)Nc2cc(S(N)(=O)=O)ccc2O)CC1 [Compound 3f, 4-Ethyl-N-(2-hydroxy-5-sulfamoylphenyl)piperazine-1-carboxamide] | decrease of CA I affinity relative to 3d (human CA I [1]; CA I, comparator 3d): 13.1 fold; more effective CA XII inhibitor than 3d (human CA XII [4]; CA XII, comparator 3d): 1.3 fold |
| 8030 nM | 140 nM | 0.017 | 73.8 nM | 4000 nM | NS(=O)(=O)c1ccc(O)c(NC(=O)N2CCOCC2)c1 [Compound 3c, N-(2-Hydroxy-5-sulfamoylphenyl)morpholine-4-carboxamide] | loss of CA I inhibition potency relative to 3a (human CA I [1]; CA I): 6.9 fold; CA IX potency increase relative to 3b (human CA IX [3]; CA IX, comparator 3b): 2.2 fold |
|  |  | 0.46 |  |  | NS(=O)(=O)c1ccc(O)c(NC(=O)NCCCCO)c1 [Compound 3j, 4-Hydroxy-3-(3-(4-hydroxybutyl)ureido)benzenesulfonamide] | inhibition of CA I (in words) (human CA I [1]; CA I): did not result in appreciable inhibition; Ki (human CA II [6]): 280 nM; Ki (human CA IX [7]): 215 nM; Ki (human CA XII [8]): 47.1 nM |
| 405 nM | 204 nM | 0.50 | 33.7 nM | 698 nM | NS(=O)(=O)c1ccc(O)c(NC(=O)N2CCN(CC(=O)NC3CCCCC3)CC2)c1 [Compound 3i, 4-(2-(Cyclohexylamino)-2-oxoethyl)-N-(2-hydroxy-5-sulfamoylphenyl)piperazine-1-carboxamide] | inhibition of CA I (in words) (human CA I [1]; CA I): did not result in appreciable inhibition |
|  |  | 0.0007 |  |  | NS(=O)(=O)c1ccc(O)c(NC(=O)NCCc2ccccn2)c1 [Compound 3h, 4-Hydroxy-3-(3-(2-(pyridin-2-yl)ethyl)ureido)benzenesulfonamide] | Ki (human CA I [5]): 571 nM; CA I potency increase relative to 3d (human CA I [1]; CA I, comparator 3d): 1.2 fold; Ki (human CA II [6]): 331 nM; Ki (human CA IX [7]): 0.24 nM; Ki (human CA XII [8]): 65.9 nM |
| 3180 nM | 369 nM | 0.12 | 91.3 nM | 583 nM | NS(=O)(=O)c1ccc(O)c(NC(=O)N2CCCC2)c1 [Compound 3a, N-(2-Hydroxy-5-sulfamoylphenyl)pyrrolidine-1-carboxamide] | more effective CA XII inhibitor than 3b (human CA XII [4]; CA XII, comparator 3b): 5.5 fold |
